Values quoted from earlier work, collected in patent US20180035685A1, “ANTIMICROBIAL COMPOSITIONS” (priority 2015, published 2018).

Legend:
[1] = stored in cold; applied at 300 ppm
[2] = tested on: Listeria; conditions: pure form; Mandalari et al. (2007)

O=c1oc2c(O)c(O)cc3c(=O)oc4c(O)c(O)cc1c4c23 [ellagic acid]
Antimicrobial effect on raw beef MAP meat [1]: no antimicrobial effect

COc1ccc([C@@H]2CC(=O)c3c(O)cc(O[C@@H]4O[C@H](CO)[C@@H](O)[C@H](O)[C@H]4O[C@@H]4O[C@@H](C)[C@H](O)[C@@H](O)[C@H]4O)cc3O2)cc1O [neohesperidin]
Effect on Listerial growth in vitro [2]: no effect on Listerial growth
